# Results taken from paper PMC10712727, “Safety, Tolerability, and Pharmacokinetics of Senaparib, a Novel PARP1/2 Inhibitor, in Chinese Patients With Advanced Solid Tumors: A Phase I Trial” (The Oncologist, 2023).
# Test system: patients with advanced solid tumors
# Experiment: Safety: treatment-emergent and senaparib-related adverse events graded per NCI CTCAE v4.03
# Format: in vivo
# Details: for ALT increased, All / ALT increased, Gr≥3 / AST increased, All / AST increased, Gr≥3 / Abdominal distension, All / Abdominal distension, Gr≥3 / Anemia (incl. hemoglobin decreased), All / Anemia (incl. hemoglobin decreased), Gr≥3 / Appetite decreased, All / Appetite decreased, Gr≥3 / Asthenia, All / Asthenia, Gr≥3 / Blood bilirubin increased, All / Blood bilirubin increased, Gr≥3 / Blood creatinine increased, All / Blood creatinine increased, Gr≥3 / Hypokalemia, All / Hypokalemia, Gr≥3 / Hyponatremia, All / Hyponatremia, Gr≥3 / Nausea, All / Nausea, Gr≥3 / Neutrophil count decreased, All / Neutrophil count decreased, Gr≥3 / Pain in extremity, All / Pain in extremity, Gr≥3 / Platelet count decreased, All / Platelet count decreased, Gr≥3 / Protein in urine, All / Protein in urine, Gr≥3 / Vomiting, All / Vomiting, Gr≥3 / WBC decreased, All / WBC decreased, Gr≥3: TEAE
# Description: This phase I, open-label, multicenter, dose-escalation, and dose-expansion study was conducted at three national clinical institutions in China. […] At baseline, all patients enrolled in the dose-escalation phase had to have at least one evaluable lesion, and those in the dose-expansion period had to have at least one measurable lesion, according to Response Evaluation Criteria in Solid Tumors version 1.1 (RECIST v1.1).[16] Entry to the dose-expansion cohort required the presence of a BRCA mutation, with the exception of patients with ovarian carcinoma, fallopian tube carcinoma, and primary peritoneal carcinoma. Full study eligibility criteria are provided in Supplementary Table S1.
# Dose escalation was conducted using a modified Fibonacci 3 + 3 method (Supplementary Fig. S1).[17] Patients were administered oral senaparib from a planned starting dose of 2 mg once daily (QD), with preliminary dose escalation to 120 mg via nine dose groups, in order of their entry into the study. At a given dose level, each patient received a single dose of senaparib followed by a 7-day washout period. They then entered a continuous dosing period to confirm the safety and PK profile, in which they received senaparib QD from day 1 to day 21 of each 3-week cycle. Progression to the next higher dose required approval from the Data Safety Monitoring Committee (DSMC) upon review of the safety and PK data of the previous dose. A 50-mg twice-daily (BID) dosing group was added (planned enrollment, n = 6 patients) based on a DSMC review of the safety, PK, and efficacy analysis of the completed QD dose groups in the phase I clinical trial of senaparib dose escalation in Australia (NCT03507543), which commenced prior to the start of this trial.
# The dose-expansion period included 3 populations: dose groups in which at least one patient achieved complete response (CR) or partial response (PR) per RECIST v1.1[16] and 1 dose group higher (evaluated for safety), as well as the dose group at the maximum tolerated dose (MTD)/recommended phase II dose (RP2D). Each of these groups included those patients in the respective dose-escalation group plus a planned additional 10 patients (approximately 20 patients in the MTD/RP2D group) with BRCA^mut+ solid tumors (ovarian, breast, or prostate cancer were preferred, and ovarian cancer could be BRCA wild type). Patients received senaparib monotherapy orally QD or BID (50-mg dose only) over each 3-week cycle until disease progression or unacceptable toxicity.
# DLTs were predefined toxicities (Supplementary Table S2) recorded over the 7 days following the single-dose administration of senaparib and during the first treatment cycle (day 1-day 21) for each dose group in the dose-escalation period only. The MTD was defined as the maximum dose at which ≤1/6 patients experienced a DLT. Senaparib PK parameters were derived from blood samples collected from patients after the single administration, and at regular intervals during the first cycle of the dose-escalation and dose-expansion periods. Plasma concentrations of senaparib were determined using high-performance liquid chromatography-tandem mass spectrometry. Tumor response was assessed every 6 weeks per RECIST v1.1,[16] recording objective response rate (ORR), disease control rate (DCR), duration of response (DOR), and progression-free survival (PFS) by dose level for all patients and for those harboring BRCA^mut+ tumors.
smiles,measurement,setting,value
O=C(c1cc(Cn2c(=O)[nH]c(=O)c3c(F)cccc32)ccc1F)N1CCN(c2ncccn2)CC1 [Senaparib],"TEAEs leading to death, patients",120 mg QD n = 4,0 n (%)
same,"TEAEs leading to dose discontinuation, events",120 mg QD n = 4,2 n ev
same,"TEAEs leading to dose discontinuation, patients",120 mg QD n = 4,1 (25.0) n (%)
same,"TEAEs leading to dose interruption, events",120 mg QD n = 4,3 n ev
same,"TEAEs leading to dose interruption, patients",120 mg QD n = 4,2 (50.0) n (%)
same,"TEAEs leading to dose reduction, events",120 mg QD n = 4,0 n ev
same,"TEAEs leading to dose reduction, patients",120 mg QD n = 4,0 n (%)
same,"TRAEs Grade ≥3, events",120 mg QD n = 4,6 n ev
same,"TRAEs Grade ≥3, patients",120 mg QD n = 4,3 (75.0) n (%)
same,"TRAEs, events",120 mg QD n = 4,47 n ev
same,"TRAEs, patients",120 mg QD n = 4,4 (100) n (%)
same,"Vomiting TRAE, All",120 mg QD n = 4,1 (25.0) n (%)
same,"Vomiting TRAE, Gr≥3",120 mg QD n = 4,0 n (%)
same,"WBC decreased TRAE, All",120 mg QD n = 4,4 (100) n (%)
same,"WBC decreased TRAE, Gr≥3",120 mg QD n = 4,0 n (%)
same,Grade ≥3 TRAEs,"2-, 10-, 40-, and 60-mg dose groups",no grade ≥3 TRAEs
same,"Grade ≥3 TRAEs, incidence (highest)",120-mg dose group,75.0%
same,"ALT increased, All",2 mg QD n = 1,0 n (%)
same,"ALT increased, Gr≥3",2 mg QD n = 1,0 n (%)
same,"AST increased, All",2 mg QD n = 1,0 n (%)
same,"AST increased, Gr≥3",2 mg QD n = 1,0 n (%)
same,"Abdominal distension, All",2 mg QD n = 1,0 n (%)
same,"Abdominal distension, Gr≥3",2 mg QD n = 1,0 n (%)
same,"Anemia (incl. hemoglobin decreased), All",2 mg QD n = 1,0 n (%)
same,"Anemia (incl. hemoglobin decreased), Gr≥3",2 mg QD n = 1,0 n (%)
same,"Appetite decreased, All",2 mg QD n = 1,1 (100) n (%)
same,"Appetite decreased, Gr≥3",2 mg QD n = 1,0 n (%)
same,"Asthenia, All",2 mg QD n = 1,1 (100) n (%)
same,"Asthenia, Gr≥3",2 mg QD n = 1,0 n (%)
same,"Blood bilirubin increased, All",2 mg QD n = 1,0 n (%)
same,"Blood bilirubin increased, Gr≥3",2 mg QD n = 1,0 n (%)
same,"Blood creatinine increased, All",2 mg QD n = 1,0 n (%)
same,"Blood creatinine increased, Gr≥3",2 mg QD n = 1,0 n (%)
same,"Hypokalemia, All",2 mg QD n = 1,1 (100) n (%)
same,"Hypokalemia, Gr≥3",2 mg QD n = 1,0 n (%)
same,"Hyponatremia, All",2 mg QD n = 1,0 n (%)
same,"Hyponatremia, Gr≥3",2 mg QD n = 1,0 n (%)
same,"Nausea, All",2 mg QD n = 1,0 n (%)
same,"Nausea, Gr≥3",2 mg QD n = 1,0 n (%)
same,"Neutrophil count decreased, All",2 mg QD n = 1,0 n (%)
same,"Neutrophil count decreased, Gr≥3",2 mg QD n = 1,0 n (%)
same,"Pain in extremity, All",2 mg QD n = 1,0 n (%)
same,"Pain in extremity, Gr≥3",2 mg QD n = 1,0 n (%)
same,"Platelet count decreased, All",2 mg QD n = 1,0 n (%)
same,"Platelet count decreased, Gr≥3",2 mg QD n = 1,0 n (%)
same,"Protein in urine, All",2 mg QD n = 1,0 n (%)
same,"Protein in urine, Gr≥3",2 mg QD n = 1,0 n (%)
same,"Vomiting, All",2 mg QD n = 1,0 n (%)
same,"Vomiting, Gr≥3",2 mg QD n = 1,0 n (%)
same,"WBC decreased, All",2 mg QD n = 1,0 n (%)
same,"WBC decreased, Gr≥3",2 mg QD n = 1,0 n (%)
same,"ALT increased, All",5 mg QD n = 3,0 n (%)
same,"ALT increased, Gr≥3",5 mg QD n = 3,0 n (%)
same,"AST increased, All",5 mg QD n = 3,0 n (%)
same,"AST increased, Gr≥3",5 mg QD n = 3,0 n (%)
same,"Abdominal distension, All",5 mg QD n = 3,1 (33.3) n (%)
same,"Abdominal distension, Gr≥3",5 mg QD n = 3,0 n (%)
same,"Anemia (incl. hemoglobin decreased), All",5 mg QD n = 3,2 (66.7) n (%)
same,"Anemia (incl. hemoglobin decreased), Gr≥3",5 mg QD n = 3,1 (33.3) n (%)
same,"Appetite decreased, All",5 mg QD n = 3,1 (33.3) n (%)
same,"Appetite decreased, Gr≥3",5 mg QD n = 3,0 n (%)
same,"Asthenia, All",5 mg QD n = 3,2 (66.7) n (%)
same,"Asthenia, Gr≥3",5 mg QD n = 3,0 n (%)
same,"Blood bilirubin increased, All",5 mg QD n = 3,1 (33.3) n (%)
same,"Blood bilirubin increased, Gr≥3",5 mg QD n = 3,0 n (%)
same,"Blood creatinine increased, All",5 mg QD n = 3,0 n (%)
same,"Blood creatinine increased, Gr≥3",5 mg QD n = 3,0 n (%)
same,"Hypokalemia, All",5 mg QD n = 3,0 n (%)
same,"Hypokalemia, Gr≥3",5 mg QD n = 3,0 n (%)
same,"Hyponatremia, All",5 mg QD n = 3,0 n (%)
same,"Hyponatremia, Gr≥3",5 mg QD n = 3,0 n (%)
same,"Nausea, All",5 mg QD n = 3,1 (33.3) n (%)
same,"Nausea, Gr≥3",5 mg QD n = 3,0 n (%)
same,"Neutrophil count decreased, All",5 mg QD n = 3,1 (33.3) n (%)
same,"Neutrophil count decreased, Gr≥3",5 mg QD n = 3,0 n (%)
same,"Pain in extremity, All",5 mg QD n = 3,1 (33.3) n (%)
same,"Pain in extremity, Gr≥3",5 mg QD n = 3,1 (33.3) n (%)
same,"Platelet count decreased, All",5 mg QD n = 3,2 (66.7) n (%)
same,"Platelet count decreased, Gr≥3",5 mg QD n = 3,0 n (%)
same,"Protein in urine, All",5 mg QD n = 3,0 n (%)
same,"Protein in urine, Gr≥3",5 mg QD n = 3,0 n (%)
same,"Vomiting, All",5 mg QD n = 3,0 n (%)
same,"Vomiting, Gr≥3",5 mg QD n = 3,0 n (%)
same,"WBC decreased, All",5 mg QD n = 3,1 (33.3) n (%)
same,"WBC decreased, Gr≥3",5 mg QD n = 3,0 n (%)
same,"ALT increased, All",10 mg QD n = 3,1 (33.3) n (%)
same,"ALT increased, Gr≥3",10 mg QD n = 3,0 n (%)
same,"AST increased, All",10 mg QD n = 3,1 (33.3) n (%)
same,"AST increased, Gr≥3",10 mg QD n = 3,0 n (%)
same,"Abdominal distension, All",10 mg QD n = 3,0 n (%)
same,"Abdominal distension, Gr≥3",10 mg QD n = 3,0 n (%)
same,"Anemia (incl. hemoglobin decreased), All",10 mg QD n = 3,1 (33.3) n (%)
same,"Anemia (incl. hemoglobin decreased), Gr≥3",10 mg QD n = 3,0 n (%)
same,"Appetite decreased, All",10 mg QD n = 3,1 (33.3) n (%)
same,"Appetite decreased, Gr≥3",10 mg QD n = 3,0 n (%)
same,"Asthenia, All",10 mg QD n = 3,0 n (%)
same,"Asthenia, Gr≥3",10 mg QD n = 3,0 n (%)
same,"Blood bilirubin increased, All",10 mg QD n = 3,0 n (%)
same,"Blood bilirubin increased, Gr≥3",10 mg QD n = 3,0 n (%)
same,"Blood creatinine increased, All",10 mg QD n = 3,0 n (%)
same,"Blood creatinine increased, Gr≥3",10 mg QD n = 3,0 n (%)
same,"Hypokalemia, All",10 mg QD n = 3,0 n (%)
same,"Hypokalemia, Gr≥3",10 mg QD n = 3,0 n (%)
same,"Hyponatremia, All",10 mg QD n = 3,0 n (%)
same,"Hyponatremia, Gr≥3",10 mg QD n = 3,0 n (%)
same,"Nausea, All",10 mg QD n = 3,0 n (%)
same,"Nausea, Gr≥3",10 mg QD n = 3,0 n (%)
same,"Neutrophil count decreased, All",10 mg QD n = 3,0 n (%)
same,"Neutrophil count decreased, Gr≥3",10 mg QD n = 3,0 n (%)
same,"Pain in extremity, All",10 mg QD n = 3,0 n (%)
same,"Pain in extremity, Gr≥3",10 mg QD n = 3,0 n (%)
same,"Platelet count decreased, All",10 mg QD n = 3,0 n (%)
same,"Platelet count decreased, Gr≥3",10 mg QD n = 3,0 n (%)
same,"Protein in urine, All",10 mg QD n = 3,1 (33.3) n (%)
same,"Protein in urine, Gr≥3",10 mg QD n = 3,0 n (%)
same,"Vomiting, All",10 mg QD n = 3,0 n (%)
